Results from patent US5985908A, “MCBI analogs of CC-1065 and the duocarmycins” (The Scripps Research Institute, priority 1998, dated 1999).
Entries after “also recorded” stand apart in the source; their conditions may differ.

Columns and labels:
[1] = test system: L1210; assay: In vitro cytotoxic activity; format: cell-based; details: for enantiomer distinction (in words): natural vs unnatural enantiomer; for cytotoxic activity of seco precursor vs cyclopropane containing agent: seco precursors; for cytotoxic potency of natural enantiomer relative to unnatural enantiomer: fold, natural more potent than unnatural
[2] = test system: w794 DNA (SV40 DNA fragment, 144 bp); assay: DNA alkylation, thermally-induced strand cleavage of w794 DNA; format: biochemical; details: for selectivity and efficiency of DNA alkylation, natural enantiomers compared: 25° C., 24 hours, 254 vs 2, 266 vs 1; for concentration of detectable DNA alkylation, natural enantiomers: w794, 25° C., 24 hours (FIG. 17); for selectivity and efficiency of DNA alkylation, unnatural enantiomers compared: 72 hours, pairwise comparison; for concentration of detectable DNA alkylation, unnatural enantiomers: w794, 37° C., 72 hours (FIG. 13)
Procedure: FIG. 13 illustrates thermally-induced strand cleavage of double-stranded DNA (SV40 DNA fragment, 144 bp, nucleotide no. 5238-138, clone w794) after 72 hours incubation of agent-DNA at 37° C. followed by removal of unbound agent and 30 minutes incubation at 100° C.; 8% denaturing PAGE and autoradiography. Lane 1, control DNA; lanes 2-4, (-)-MCBI-TMI (254, 1×10^-5 to 1×10^-7 M); lanes 5-7, (-)-duocarmycin SA (2, 1×10^-5 to 1×10^-7 M); lanes 8-11, Sanger G, C, A and T reactions; lanes 12-14, (-)-CC-1065 (1, 1×10^-5 to 1×10^-7 M); lanes 15-17, (-)-MCBI-CDPI2 (266, 1×10^-5 to 1×10^-7 M); lanes 18-20, (-)-MCBI-CDPI1 (262, 1×10^-5 to 1×10^-7 M); lanes 21-23 (-)-MCBI-indole2 (258, 1×10^-5 to 1×10^-7 M).
As indicated, the DNA-agent incubation was conducted at 37° C. for 24 or 48 hours, followed by removal of unbound agent and 30 minutes incubation at 100° C.; 8% denaturing PAGE and autoradiography.
FIG. 17 illustrates thermally-induced strand cleavage of double-stranded DNA (SV40 DNA fragment, 144 bp, nucleotide no. 5238-138, clone w794) after 24 hours incubation of agent-DNA at 25° C. followed by removal of unbound agent and 30 minutes incubation at 100° C; 8% denaturing PAGE and autoradiography. Lane 1, control DNA; lanes 2-4, (+)-duocarmycin SA (2, 1×10^-5 to 1×10^-7 M); lanes 5-7, (+)-MCBI-TMI (254, 1×10^-5 to 1×10^-7 M); lanes 8-11, Sanger G, C, A and T reactions; lanes 12-14, (+)-CC-1065 (1, 1×10^-5 to 1×10^-7 M); lanes 15-17, (+)-MCBI-indole2 (258, 1×10^-5 to 1×10^-7 M); lanes 18-20, (+)-MCBI-CDPI2 (266, 1×10^-5 to 1×10^-7 M).
(§1) The DNA alkylation properties of the agents were examined within four 150 base-pair segments of duplex DNA for which comparative results are available for related agents. Four clones of phage M13mp10 were selected for study and contain the SV40 nucleosomal DNA inserts w794 (nucleotide no. 5238-138) and its complement w836 (nucleotide no. 5189-91) and c988 (nucleotide no. 4359-4210) and its complement c820 (nucleotide no. 4201-4356). The alkylation site identification and the assessment of the relative selectivity among the available sites were obtained by thermally-induced strand cleavage of the singly 5'end-labeled duplex DNA after exposure to the agents. Following treatment of the end-labeled duplex DNA with a range of agent concentrations, the unbound agent was removed by EtOH precipitation of the DNA. Redissolution of the DNA in aqueous buffer, thermolysis (100° C., 30 minutes) to induce strand cleavage at the sites of DNA alkylation, denaturing high resolution polyacrylamide gel electrophoresis (PAGE) adjacent to Sanger dideoxynucleotide sequencing standards, and autoradiography led to identification of the DNA cleavage and alkylation sites. The full details of this procedure have been disclosed and discussed elsewhere (10). The DNA alkylation reaction selectivities observed under the incubation conditions of 25° C. (24 hours) for the agents detailed herein have proven identical to the alkylation selectivities observed with shorter or extended reaction periods or when the reactions were conducted at different temperatures (37 or 4° C., 0.5-7 days). As discussed below, the rates and efficiencies but not final relative efficiencies of DNA alkylation were altered by changing the reaction temperatures.

[3] = test system: duplex DNA (w794, w836, c988, c820); assay: DNA alkylation selectivity within four 150 base-pair segments of duplex DNA; format: biochemical, SV40
Source text: as §1

[4] = pH 3; cited from earlier work
[5] = Solvolysis reactivity (UV), aqueous buffer-CH3OH; format: physicochemical
Procedure: The solvolysis was followed spectrophotometrically by UV with the disappearance of the long-wavelength absorption band of the MCBI chromophore ([…]) and with the appearance of a short-wavelength absorption band (266 nm) attributable to seco-N-BOC-MCBI (FIG. 9).
N-BOC-MCBI (238, 0.1 mg) was dissolved in CH3 OH (1.5 mL) and mixed with pH 3 aqueous buffer (1.5 mL). The buffer contained 4:1:20 (v:v:v) 0.1 M citric acid, 0.2 M Na2 HPO4, and H2 O, respectively. The solvolysis solution was sealed and kept at 25° C. protected from light. The UV spectrum was measured at regular intervals every 2 hours during the first day, every 12 hours for another week, and every 24 hours for an additional week. The decrease in the long-wavelength absorption at 324 nm and the increase in the short-wavelength absorption at 266 nm were monitored, FIG. 1.
Similarly, MCBI (240, 0.1 mg) was dissolved in CH3 OH (1.5 mL) and mixed with […] (1.5 mL). The solvolysis solution was sealed and stirred at 25° C. in the dark. The UV spectrum was recorded every 24 hours for two months. The decrease in the long-wavelength absorption at 340 nm and the increase in absorption at 268 nm were monitored, FIG. 1.

NC(=O)N1CCc2c1ccc1[nH]c(C(=O)N3CCc4c3ccc3[nH]c(C(=O)N5CC6CC67C5=CC(=O)c5ccccc57)cc43)cc21 (stereo not shown) [CBI-CDPI2, reference compound]
enantiomer distinction (in words) [1]: comparable potencies

COc1c(O)c2c(c3cc(C(=O)N4CCc5c4c(O)c(OC)c4[nH]c(C(=O)N6C[C@H]7C[C@@]78C6=CC(=O)c6[nH]cc(C)c68)cc54)[nH]c13)CCN2C(N)=O [(+)-CC-1065, reference compound]
selectivity and efficiency of DNA alkylation, natural enantiomers compared [2]: essentially indistinguishable | concentration of detectable DNA alkylation, natural enantiomers [2]: 10^-7 M | AT-rich alkylation selectivity, size of site, natural enantiomers [3]: 5 base-pair

COc1ccc2c(c1)[C@]13C[C@H]1CN(C(=O)c1cc4cc(OC)c(OC)c(OC)c4[nH]1)C3=CC2=O [(-)-MCBI-TMI]
selectivity and efficiency of DNA alkylation, unnatural enantiomers compared ([2]; 37° C.): nearly indistinguishable

Cc1c[nH]c2c1C13CC1CN(C(=O)OC(C)(C)C)C3=CC2=O (stereo not shown) [N-BOC-CPI]
solvolysis half-life t1/2 of comparison agents [4]: 1.53 days

COc1ccc2c(c1)[C@@]13C[C@@H]1CN(C(=O)c1cc4cc(NC(=O)c5cc6ccccc6[nH]5)ccc4[nH]1)C3=CC2=O [(+)-MCBI-indole2]
concentration of detectable DNA alkylation, natural enantiomers [2]: 10^-7 M

COc1ccc2c(c1)[C@]13C[C@H]1CN(C(=O)c1cc4cc(NC(=O)c5cc6ccccc6[nH]5)ccc4[nH]1)C3=CC2=O [(-)-MCBI-indole2]
selectivity and efficiency of DNA alkylation, unnatural enantiomers compared ([2]; 37° C.): nearly indistinguishable

COc1ccc2c(O)cc3c(c2c1)C(CCl)CN3C(=O)c1cc2c3c(ccc2[nH]1)N(C(N)=O)CC3 (stereo not shown) [Compound 260]
cytotoxic activity of seco precursor vs cyclopropane containing agent [1]: indistinguishable

COc1ccc2c(c1)[C@@]13C[C@@H]1CN(C(=O)c1cc4c5c(ccc4[nH]1)N(C(=O)c1cc4c6c(ccc4[nH]1)N(C(N)=O)CC6)CC5)C3=CC2=O [(+)-MCBI-CDPI2]
selectivity and efficiency of DNA alkylation, natural enantiomers compared [2]: essentially indistinguishable | concentration of detectable DNA alkylation, natural enantiomers [2]: 10^-7 M

COc1ccc2c(O)cc3c(c2c1)C(CCl)CN3C(=O)c1cc2cc(NC(=O)c3cc4ccccc4[nH]3)ccc2[nH]1 (stereo not shown) [Compound 256]
cytotoxic activity of seco precursor vs cyclopropane containing agent [1]: indistinguishable

COc1ccc2c(c1)[C@]13C[C@H]1CN(C(=O)c1cc4c5c(ccc4[nH]1)N(C(=O)c1cc4c6c(ccc4[nH]1)N(C(N)=O)CC6)CC5)C3=CC2=O [(-)-MCBI-CDPI2]
selectivity and efficiency of DNA alkylation, unnatural enantiomers compared ([2]; 37° C.): nearly indistinguishable

COc1c(O)c2c(c3cc(C(=O)N4CCc5c4c(O)c(OC)c4[nH]c(C(=O)N6CC7CC78C6=CC(=O)c6[nH]cc(C)c68)cc54)[nH]c13)CCN2C(N)=O (stereo not drawn) [ent-(-)-CC-1065, reference compound]
selectivity and efficiency of DNA alkylation, unnatural enantiomers compared ([2]; 37° C.): nearly indistinguishable

COc1ccc2c(c1)[C@@]13C[C@@H]1CN(C(=O)OC(C)(C)C)C3=CC2=O [(+)-N-BOC-MCBI, N-(tert-Butyloxycarbonyl)-7-methoxy-1,2,9,9a-tetrahydrocyclopropa[c]benz[e]indol-4-one]
enantiomer distinction (in words) [1]: more potent activity | relative efficiency of DNA alkylation, natural/unnatural enantiomer ([2]; (+)-N-BOC-MCBI/ent-(-)-N-BOC-MCBI, 37° C.): 1-2 ×

O=C1C=C2NCC3CC23c2ccccc21 (stereo not shown) [CBI, 1,2,9,9a-tetrahydrocyclopropa[c]benz[e]indol-4-one]
solvolysis half-life t1/2 of comparison agents [4]: 38.8 days | solvolysis rate constant k of comparison agents [4]: 2.07e-07 s⁻¹

COc1ccc2c(c1)C13CC1CN(C(=O)c1cc4c5c(ccc4[nH]1)N(C(N)=O)CC5)C3=CC2=O (stereo not shown) [Compound 262]
cytotoxic potency of natural enantiomer relative to unnatural enantiomer [1]: 1-3 × | enantiomer distinction (in words) [1]: essentially indistinguishable | enantiomer distinction (in words) ([1]; listed as MCBI-CDPI1): nearly equipotent | AT-rich alkylation selectivity, size of site, natural enantiomers [3]: 3.5 base-pair

COc1ccc2c(O)cc3c(c2c1)C(CCl)CN3C(=O)OC(C)(C)C (stereo not shown) [Compound 236, 3-(tert-Butyloxycarbonyl)-1-(chloromethyl)-5-hydroxy-8-methoxy-1,2-dihydro-3H-benz[e]indole]
cytotoxic activity of seco precursor vs cyclopropane containing agent [1]: indistinguishable

COc1ccc2c(c1)C13CC1CN(C(=O)c1cc4cc(NC(=O)c5cc6ccccc6[nH]5)ccc4[nH]1)C3=CC2=O (stereo not shown) [Compound 258]
cytotoxic potency of natural enantiomer relative to unnatural enantiomer [1]: 1-3 × | enantiomer distinction (in words) [1]: nearly equipotent | concentration of detectable DNA alkylation, unnatural enantiomers [2]: 10^-6 to 10^-7 M

COc1ccc2c(c1)[C@]13C[C@H]1CN(C(=O)c1cc4c5c(ccc4[nH]1)N(C(N)=O)CC5)C3=CC2=O [(-)-MCBI-CDPI1]
selectivity and efficiency of DNA alkylation, unnatural enantiomers compared ([2]; 37° C.): nearly indistinguishable

COc1ccc2c(O)cc3c(c2c1)C(CCl)CN3C(=O)c1cc2c3c(ccc2[nH]1)N(C(=O)c1cc2c4c(ccc2[nH]1)N(C(N)=O)CC4)CC3 (stereo not shown) [Compound 264]
cytotoxic activity of seco precursor vs cyclopropane containing agent [1]: indistinguishable

COc1ccc2c(c1)C13CC1CNC3=CC2=O (stereo not shown) [Compound 240, 7-Methoxy-1,2,9,9a-tetrahydrocyclopropa[c]benz[e]indol-4-one]
acceleration of rate of solvolysis by C7 methoxy group vs. corresponding CBI agent ([5]; acid-catalyzed solvolysis, pH 3): 1.6 × | solvolysis rate constant k ([5]; pH 3, 50% CH3OH-buffer, 25° C.): 5.76e-07 s⁻¹ | half-life ([5]; pH 3, 50% CH3OH-buffer, 25° C., read-out: solvolysis half-life t1/2 (converted)): 13.9 days | solvolysis reactivity relative to DSA ([5]; pH 3, more reactive than DSA): 6-7 × | relative solvolysis reactivity (in words) ([5]; pH 3, vs. agent named): only slightly more reactive than CBI; also recorded: less reactive than CPI

COc1ccc2c(c1)C13CC1CN(C(=O)c1cc4c5c(ccc4[nH]1)N(C(=O)c1cc4c6c(ccc4[nH]1)N(C(N)=O)CC6)CC5)C3=CC2=O (stereo not shown) [Compound 266]
cytotoxic potency of natural enantiomer relative to unnatural enantiomer [1]: 1-3 × | enantiomer distinction (in words) [1]: essentially indistinguishable | enantiomer distinction (in words) ([1]; listed as MCBI-CDPI2): nearly equipotent | concentration of detectable DNA alkylation, unnatural enantiomers [2]: 10^-6 to 10^-7 M

COC(=O)c1cc2c([nH]1)C(=O)C=C1N(C(=O)c3cc4cc(OC)c(OC)c(OC)c4[nH]3)CC3CC123 (single isomer, unassigned) [ent-(-)-duocarmycin SA, reference compound]
selectivity and efficiency of DNA alkylation, unnatural enantiomers compared ([2]; 37° C.): slightly more effective

CC(C)(C)OC(=O)N1CC2CC23C1=CC(=O)c1ccccc13 (stereo not shown) [N-BOC-CBI]
solvolysis half-life t1/2 of comparison agents [4]: 5.54 days

COc1ccc2c(O)cc3c(c2c1)C(CCl)CN3C(=O)c1cc2cc(OC)c(OC)c(OC)c2[nH]1 (stereo not shown) [Compound 252]
cytotoxic activity of seco precursor vs cyclopropane containing agent [1]: indistinguishable
